Test results: patent US5378700A, “Fused pyrimidine derivative, process for preparation of same and pharmaceutical preparation comprising same as active ingredient” (Teijin Limited, priority 1989, dated 1995)

Columns and labels:
Type in all cases: in vivo, Male Wistar strain rats
[1] = system: hypoxemia model animals (carbon powder); experiment: Effect on partial pressure of gases in arterial blood, intravenous, Method A (carbon powder induced hypoxemia); settings: intravenous 0.1 mg/kg/min, 10 min, after minus before administration
Experimental: (§1) Example 75: Effect on Partial Pressure Value of Gases in Arterial Blood (Intravenous Injection System)
Male Wistar strain rats (body weight about 300 g) were anesthetized intra-peritonealy with urethane, and a cannula was inserted into the respiratory tract and the femoral artery, respectively. A suspension (30-100 μm, 10 mg/ml) of carbon powder in a corn oil was intratrachealy injected to induce a hypoxemia state (PaO2 : 50-60 mmHg). A compound in the present invention was continuously injected into these hypoxemia model animals intravenously (0.1 mg/kg/min, 10 min), and then a partial pressure value of gases (PaO2, PaCO2) in arterial blood was immediately determined.

[2] = system: hypoxemia model animals (acetic acid); experiment: Effect on partial pressure of gases in arterial blood, intravenous, Method B (acetic acid induced hypoxemia); settings: 2.0% acetic acid, intravenous 0.1 mg/kg/min, 10 min, after minus before administration
Experimental: as §1
Male Wistar strain rats (body weight about 300 g) were anesthetized with halothane inhalant, and then 2.0% acetic acid was intratrachealy injected at 0.6 ml/kg to induce a respiratory insufficiency. The animals were intraperitonealy anesthetized with urethane-α-chloralose, and a cannula was inserted into the femoral artery. After the hypoxemic state (PaO2 : 60-70 mmHg) was observed a compound in accordance with the present invention (test substance) was continuously injected into these hypoxemia model animals intravenously (0.1 mg/kg/min, 10 min), and then a partial pressure value of gases (PaO2, PaCO2) in arterial blood was immediately determined.

[3] = system: hypoxemia state (acetic acid); experiment: Effect on partial pressure of gases in arterial blood, oral administration (acetic acid induced hypoxemia); settings: 2.0% acetic acid, 60 min after administration
Experimental: Example 76: Effect on Partial Pressure Value of Gases in Arterial Blood (Oral Administration System)
Male Wistar strain rats (body weight about 250 g) fasted overnight were anesthetized with halothane inhalant, and then a cannula was inserted into the femoral artery. After the animals recovered from the anesthesia, they were again anesthetized with halothane inhalant, and then 2.0% acetic acid was intratrachealy injected at 0.8 ml/kg to induce a hypoxemia state. After the hypoxemic state was observed over about 60 min., a compound in accordance with the present invention (test substance) was orally administered to the animals. On 60 min. after the administration, the partial pressure value of gases (PaO2, PaCO2) in arterial blood was determined.

SMILES	PaCO2 Decreasing Activity ΔPaCO2 [1]	PaO2 Increasing Activity ΔPaO2 [1]	PaCO2 Decreasing Activity ΔPaCO2 [2]	PaO2 Increasing Activity ΔPaO2 [2]	PaCO2 Decreasing Activity ΔPaCO2 [3]	PaO2 Increasing Activity ΔPaO2 [3]
C=C(C)CNc1nc2c(c(N3CCN(C(c4ccc(F)cc4)c4ccc(F)cc4)CC3)n1)CCCN2 [Compound 112]	-2.0 mmHg	+4.6 mmHg				
C=CCNc1nc(NCC=C)c2c(n1)N(C)CCC2 [Compound 121]			-1.2 mmHg	+15.9 mmHg	+ (-3--6 mmHg)	++ (+6-+9 mmHg)
C=CCNc1nc2c(c(N3CCCC3)n1)CCCN2CC=C [Compound 143]			-0.7 mmHg	+8.1 mmHg	± (0--3 mmHg)	+ (+3-+6 mmHg)
C=CCNc1nc2c(c(N3CCCCC3)n1)CCCN2CC=C [Compound 145]			-0.8 mmHg	+11.2 mmHg	± (0--3 mmHg)	+ (+3-+6 mmHg)
C=CCNc1nc2c(c(N3CCC(c4ccccc4)CC3)n1)CCCN2CC=C [Compound 146]			+2.5 mmHg	+6.6 mmHg		
C=CCNc1nc2c(c(N3CCCCCC3)n1)CCCN2CC=C [Compound 153]			-0.9 mmHg	+10.0 mmHg		
C=CCNc1nc2c(c(N3CCN(C)CC3)n1)CCCN2CC=C [Compound 155]			+2.6 mmHg	+6.6 mmHg	+ (-3--6 mmHg)	++ (+6-+9 mmHg)
C=CCNc1nc2c(c(N3CCN(C(c4ccc(F)cc4)c4ccc(F)cc4)CC3)n1)CCCN2CC=C [Compound 159]	+0.4 mmHg	+4.8 mmHg				
C=CCNc1nc(NCC=C)c2c(n1)N(CC=C)CCC2 [Compound 168]			-12.2 mmHg	+14.4 mmHg		
C=CCNc1nc(NCCc2ccccc2)c2c(n1)N(CC=C)CCC2 [Compound 171]			-13.4 mmHg	+17.4 mmHg	± (0--3 mmHg)	+ (+3-+6 mmHg)
C=CCNc1nc(N(C)C)c2c(n1)N(CC=C)CCC2 [Compound 184]			-3.2 mmHg	+10.4 mmHg		
C=CCNc1nc(N(C)Cc2ccccc2)c2c(n1)N(CC=C)CCC2 [Compound 189]			-7.6 mmHg	+16.0 mmHg		
C=CCNc1nc(SC(C)c2ccccc2)c2c(n1)N(CC=C)CCC2 (stereo not drawn) [Compound 203]			-2.1 mmHg	+9.5 mmHg		
C=CCNc1nc(SCCc2ccccc2)c2c(n1)N(CC=C)CCC2 [Compound 204]			+2.2 mmHg	+15.0 mmHg		
C=CCNc1nc2c(c(N3CCOCC3)n1)CCCN2CC=C [Compound 209]			-2.4 mmHg	+7.6 mmHg	+ (-3--6 mmHg)	+ (+3-+6 mmHg)
C=CCNc1nc(N2CC=CCC2)c2c(n1)N(CC=C)CCC2 [Compound 213]			-2.9 mmHg	+10.3 mmHg		
C=CCNc1nc2c(c(N3CCc4ccccc4C3)n1)CCCN2CC=C [Compound 214]			+2.2 mmHg	+9.8 mmHg		
C=CCNc1nc(NCC=C)c2c(n1)N(Cc1ccccc1)CCC2 [Compound 233]			-4.0 mmHg	+8.6 mmHg		
